Experiments:
[1] = biological target: T1, SERT (Homo sapiens, UniProt P31645); test: SERT radioligand binding with [3H]imipramine
T1 construct: expressed in transfected cells; host or cells: HEK293
Experimental: (§1) Radioligand Binding. Affinity of the test compounds for SERT, NET, and DAT was determined in radioligand binding experiments with [^3H]imipramine, [^3]nisoxetine, and [^3H]WIN35,428, respectively, by WuXi AppTec (Hong Kong) Limited, under the conditions described in Table 15.

[2] = biological target: T2, serotonin transporter (SERT) (Homo sapiens, UniProt P31645); test: Fluorescent substrate uptake inhibition, SERT; format: cell-based; conditions: for inhibition at 10 µM: HEK293 cells expressing SERT
T2 construct: expressed in transfected cells; host or cells: HEK293
T2 sequence (P31645 whole entry, species assumed): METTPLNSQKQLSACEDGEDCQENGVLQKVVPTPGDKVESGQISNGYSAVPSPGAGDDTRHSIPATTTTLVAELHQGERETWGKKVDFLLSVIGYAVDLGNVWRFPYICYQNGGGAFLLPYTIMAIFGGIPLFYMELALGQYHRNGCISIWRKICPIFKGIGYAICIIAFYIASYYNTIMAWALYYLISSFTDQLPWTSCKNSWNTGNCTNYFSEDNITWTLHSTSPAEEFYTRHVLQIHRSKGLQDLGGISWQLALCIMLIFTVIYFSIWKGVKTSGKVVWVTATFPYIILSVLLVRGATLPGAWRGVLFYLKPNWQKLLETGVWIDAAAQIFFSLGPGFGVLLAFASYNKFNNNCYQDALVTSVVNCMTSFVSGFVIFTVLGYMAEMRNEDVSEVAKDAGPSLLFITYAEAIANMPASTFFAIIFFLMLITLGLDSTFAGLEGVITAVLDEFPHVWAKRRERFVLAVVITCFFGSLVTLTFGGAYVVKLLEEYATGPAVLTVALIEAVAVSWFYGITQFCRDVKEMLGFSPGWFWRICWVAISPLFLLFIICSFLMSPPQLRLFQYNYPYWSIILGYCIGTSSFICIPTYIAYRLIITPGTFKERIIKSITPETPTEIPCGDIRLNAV

[3] = biological target: MK-801 binding site of the N-methyl-D-aspartate receptor (NMDAR); test: NMDAR radioligand binding with [3H]MK-801, Method B; design: species or system Sprague Dawley rat; conditions: MK-801 site, Method B, male Sprague Dawley rat cortex, 5.0 nM [3H]MK-801; read-out: NMDAR Ki ± SEM
Experimental: Radioligand Binding—Method B. Affinity of the test compounds for NMDAR was determined in radioligand binding experiments with [^3H]MK-801 by WuXi AppTec (Hong Kong) Limited, under the conditions described in Table 13.

[4] = MLM stability (Low Activity); format: in vitro ADME, CD-1 mice; conditions: male, CD-1, mouse, liver microsomes, pH 7.4, Condition 1 (Low Activity), 0.50 mg protein/mL
How it was run: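 Pooled male CD-1 mouse liver microsomes (0.50 mg/mL) with 1 μM compound and 1 mM NADPH in 100 mM PBS pH 7.4 with 1 mM MgCl2, 37 °C, six time points over 60 min. Parent remaining by LC-MS/MS; kel, t1/2 and Clint from linear regression of ln(AUC) versus time.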

[5] = HLM stability (Low Activity, Alternative Method); format: in vitro ADME; conditions: both sexes, human, liver microsomes, pH 7.4, Condition 1 column, values marked *: Low Activity, 0.50 mg protein/mL
How it was run: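 Pooled male and female human liver microsomes (0.50 mg/mL) in 100 mM PBS pH 7.4 with 1 mM MgCl2 and 1 mM NADPH, compound 1 μM (1.0% solvent), 37° C with shaking, six time points over 60 min. Parent remaining measured by LC-MS/MS; kel, t1/2 and Clint from linear regression of ln(AUC) versus time.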

[6] = biological target: T3, norepinephrine transporter (NET) (Homo sapiens, UniProt P23975); test: Fluorescent substrate uptake inhibition, NET; format: cell-based; conditions: for inhibition at 10 µM: HEK293 cells expressing NET
T3 construct: expressed in transfected cells; host or cells: HEK293
T3 sequence (P23975 whole entry, species assumed): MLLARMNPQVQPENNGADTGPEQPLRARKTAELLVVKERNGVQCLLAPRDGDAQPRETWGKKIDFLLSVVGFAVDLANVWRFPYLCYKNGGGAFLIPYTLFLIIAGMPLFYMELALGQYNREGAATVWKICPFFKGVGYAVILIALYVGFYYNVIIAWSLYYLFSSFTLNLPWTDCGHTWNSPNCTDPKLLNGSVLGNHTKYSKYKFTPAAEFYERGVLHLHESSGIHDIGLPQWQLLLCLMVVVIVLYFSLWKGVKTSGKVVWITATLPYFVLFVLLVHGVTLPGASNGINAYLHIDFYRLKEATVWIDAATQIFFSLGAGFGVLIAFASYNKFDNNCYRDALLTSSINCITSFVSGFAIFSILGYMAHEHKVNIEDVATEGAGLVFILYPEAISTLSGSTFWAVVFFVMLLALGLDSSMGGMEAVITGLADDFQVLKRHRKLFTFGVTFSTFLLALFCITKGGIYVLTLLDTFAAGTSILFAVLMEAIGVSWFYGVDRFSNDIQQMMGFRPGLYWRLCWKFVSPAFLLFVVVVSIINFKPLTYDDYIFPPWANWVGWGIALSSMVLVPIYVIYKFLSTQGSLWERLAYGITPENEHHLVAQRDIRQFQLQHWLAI

[7] = biological target: T4, DAT (Homo sapiens, UniProt Q01959); test: DAT radioligand binding with [3H]WIN35,428
T4 construct: expressed in transfected cells; host or cells: CHO (uptake)
T4 sequence (Q01959 whole entry, species assumed): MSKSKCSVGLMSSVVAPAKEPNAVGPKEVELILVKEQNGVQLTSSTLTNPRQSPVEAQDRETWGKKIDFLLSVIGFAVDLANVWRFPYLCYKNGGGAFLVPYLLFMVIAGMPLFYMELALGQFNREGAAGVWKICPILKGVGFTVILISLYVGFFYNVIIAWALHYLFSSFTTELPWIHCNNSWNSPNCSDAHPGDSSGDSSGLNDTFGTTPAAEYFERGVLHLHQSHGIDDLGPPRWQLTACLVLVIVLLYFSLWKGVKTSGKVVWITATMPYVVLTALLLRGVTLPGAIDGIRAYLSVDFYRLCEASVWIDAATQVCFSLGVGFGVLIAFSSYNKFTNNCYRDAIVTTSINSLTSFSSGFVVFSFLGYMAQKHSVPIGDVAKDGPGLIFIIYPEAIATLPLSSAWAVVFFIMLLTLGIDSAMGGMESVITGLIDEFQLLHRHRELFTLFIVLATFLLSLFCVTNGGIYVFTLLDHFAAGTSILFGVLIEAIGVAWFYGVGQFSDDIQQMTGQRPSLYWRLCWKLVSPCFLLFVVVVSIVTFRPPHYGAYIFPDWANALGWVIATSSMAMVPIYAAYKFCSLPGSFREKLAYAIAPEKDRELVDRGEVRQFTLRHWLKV
Experimental: as §1

[8] = RLM stability (Low Activity); format: in vitro ADME, Sprague Dawley rats; conditions: male, Sprague Dawley, rat, liver microsomes, pH 7.4, Condition 1 (Low Activity), 0.50 mg protein/mL
How it was run: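 Pooled male Sprague Dawley rat liver microsomes (0.50 mg/mL) in PBS pH 7.4 with 1 mM MgCl2 and 1 mM NADPH; compound 1 μM, 1.0% solvent, 37° C. Six time points over 60 min, parent remaining by LC-MS/MS; kel, t1/2 and Clint from linear regression of ln(AUC) versus time.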

[9] = biological target: T5, vesicular monoamine transporter 2 (VMAT2) (Homo sapiens, UniProt Q05940); test: Fluorescent substrate uptake inhibition, VMAT2; format: cell-based; conditions: 10 μM, transfected cells
T5 construct: expressed in transfected cells
T5 sequence (Q05940 whole entry, species assumed): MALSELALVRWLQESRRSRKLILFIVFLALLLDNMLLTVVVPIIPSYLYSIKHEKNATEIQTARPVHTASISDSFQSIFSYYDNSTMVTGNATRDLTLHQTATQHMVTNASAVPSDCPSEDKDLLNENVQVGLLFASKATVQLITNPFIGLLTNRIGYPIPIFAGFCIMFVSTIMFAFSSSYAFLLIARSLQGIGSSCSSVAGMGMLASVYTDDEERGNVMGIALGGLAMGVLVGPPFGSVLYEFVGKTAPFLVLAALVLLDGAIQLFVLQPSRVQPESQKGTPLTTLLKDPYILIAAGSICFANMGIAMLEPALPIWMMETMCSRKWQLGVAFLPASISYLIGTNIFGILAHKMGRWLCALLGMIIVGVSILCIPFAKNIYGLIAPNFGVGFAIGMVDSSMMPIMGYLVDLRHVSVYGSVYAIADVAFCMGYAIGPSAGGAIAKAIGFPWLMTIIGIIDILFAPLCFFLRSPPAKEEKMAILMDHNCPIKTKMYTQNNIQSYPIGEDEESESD

[10] = biological target: T6, dopamine transporter (DAT) (Homo sapiens, UniProt Q01959); test: Fluorescent substrate uptake inhibition, DAT; format: cell-based; conditions: for inhibition at 10 µM: CHO cells expressing DAT; for inhibitory activity at DAT: in words
T6 construct: expressed in transfected cells; host or cells: CHO (uptake)
T6 sequence (Q01959 whole entry, species assumed): as the sequence (Q01959 whole entry, species assumed) above

[11] = biological target: T7, NET (Homo sapiens, UniProt P23975); test: NET radioligand binding with [3H]nisoxetine
T7 construct: expressed in transfected cells; host or cells: HEK293
T7 sequence (P23975 whole entry, species assumed): as the sequence (P23975 whole entry, species assumed) above
Experimental: as §1

[12] = MLM stability (High Activity); format: in vitro ADME, BALB/c mice; conditions: male, BALB/c, mouse, liver microsomes, pH 7.4, Condition 2 (High Activity), 1.0 mg protein/mL
Experimental: MLM Stability (High Activity). Pooled MLM from male BALB/c mice (XenoTech M3000) were used. Microsomal incubations were carried out in 96-well plates in 5 aliquots of 40 μL each (one for each time point). Liver microsomal incubation medium consisted of PBS (100 mM, pH 7.4), MgCl2 (3.3 mM), NADPH (3 mM), glucose-6-phosphate (5.3 mM), and glucose-6-phosphate dehydrogenase (0.67 units/mL), with 1.0 mg of liver microsomal protein per mL. Control incubations were performed by replacing the NADPH-cofactor system with PBS. Test compounds (1 μM, final solvent concentration 1.6%) were incubated with microsomes at 37° C., shaking at 100 rpm. Incubations were performed in duplicate. Five time points over 60 minutes were analyzed. The reactions were stopped by adding 9 volumes of 90% acetonitrile-water to incubation aliquots, followed by protein sedimentation by centrifugation at 5500 rpm for 3 minutes. Supernatants were analyzed for parent compound remaining using a fit-for-purpose liquid chromatography-tandem mass spectrometry (LC-MS/MS) method, with authentic samples of each analyte used for identity confirmation.
Data Analysis. The elimination constant (kel), half-life (t1/2) and intrinsic clearance (Clint) were determined in a plot of […] versus time, using linear regression analysis.

[13] = HLM stability (High Activity); format: in vitro ADME; conditions: both sexes, human, liver microsomes, pH 7.4, Condition 2 (High Activity), 1.0 mg protein/mL
How it was run: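 Pooled male and female human liver microsomes, 1.0 mg protein/mL, in 100 mM PBS pH 7.4 with NADPH-regenerating system; compound 1 μM at 37° C, five time points over 60 min. Parent remaining by LC-MS/MS; kel, t1/2 and Clint from linear regression of ln(AUC) versus time.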

T1 sequence (P31645 whole entry, species assumed): as the sequence (P31645 whole entry, species assumed) above

In the case of CC(C)N[C@]1(c2ccccc2)CCCCC1=O [Compound 28S, (S)-2-(isopropylamino)-2-phenylcyclohexan-1-one], the Ki [1] is reported as 12.3 µM, the IC50 [2] is reported as 8.5 µM and the inhibition at 10 µM [2] is reported as 22%. The Ki [3] was 3000 nM, the half-life at 1 μM [4] was 14.8 min and the microsomal CLint at 1 μM [4] was 94 µL/min/mg. It also gave a half-life at 1 μM [5] of 76.6 min, a microsomal CLint at 1 μM [5] of 18.1 µL/min/mg and an IC50 [6] of 4.7 µM. It also gave an inhibition at 10 µM [6] of 48.7%, a Ki [7] of 6 µM and a half-life at 1 μM [8] of 18.9 min. For the same molecule, the microsomal CLint at 1 μM [8] was 73.4 µL/min/mg, the inhibition at 10 µM [9] was -32.7% and the IC50 [10] was 1.3 µM. For the same molecule, the inhibition at 10 µM [10] was 58%, the “inhibitory activity at DAT” value [10] was “significant inhibitory activity at DAT” and the Ki [11] was 13.5 µM.

O=C1CCCC[C@]1(c1ccccc1)N1CCCCC1 [Compound 26R, (R)-2-phenyl-2-(piperidin-1-yl)cyclohexan-1-one] gave a Ki [1] of 22.5 µM, an IC50 [2] of over 100 µM and an inhibition at 10 µM [2] of 30.4%. For the same molecule, the Ki [3] was 3700 nM, the IC50 [6] was 23.7 µM and the inhibition at 10 µM [6] was 19.5%. For the same molecule, the Ki [7] was 70.4 µM, the inhibition at 10 µM [9] was -12.3% and the IC50 [10] was 5 µM. For the same molecule, the inhibition at 10 µM [10] was 58%, the “inhibitory activity at DAT” value [10] was “significant inhibitory activity at DAT” and the Ki [11] was over 87.4 µM. For the same molecule, the half-life at 1 μM [12] was 10.6 min, the microsomal CLint at 1 μM [12] was 65 µL/min/mg and the half-life at 1 μM [13] was 63.2 min. The microsomal CLint at 1 μM [13] was 11 µL/min/mg.

In the case of O=C1CCCC[C@@]1(c1ccccc1)N1CCCCC1 [Compound 26S, (S)-2-phenyl-2-(piperidin-1-yl)cyclohexan-1-one], the Ki [1] is reported as 8.2 µM, the IC50 [2] is reported as 44 µM and the inhibition at 10 µM [2] is reported as 43%. The Ki [3] was 520 nM, the IC50 [6] was 8.9 µM and the inhibition at 10 µM [6] was 16.1%. For the same molecule, the Ki [7] was 79.5 µM, the inhibition at 10 µM [9] was 22.9% and the IC50 [10] was 16.4 µM. It also gave an inhibition at 10 µM [10] of 33.7%, a Ki [11] of over 87.4 µM and a half-life at 1 μM [12] of 12.3 min. The microsomal CLint at 1 μM [12] was 56 µL/min/mg, the half-life at 1 μM [13] was 101 min and the microsomal CLint at 1 μM [13] was 7 µL/min/mg.

Source: patent US11344510B2, “Arylcyclohexylamine derivatives and their use in the treatment of psychiatric disorders” (Gilgamesh Pharmaceuticals, Inc., priority 2019, dated 2022)
